Source: ChEMBL document CHEMBL1140102, “Novel A-ring and B-ring modified combretastatin A-4 (CA-4) analogues endowed with interesting cytotoxic activity” (J Med Chem, 2008)

Columns and labels:
[1] = tested on: BMEC; experiment: Cytotoxicity against BMEC by sulforhodamine B test; format: cell-based; conditions: Bos taurus
[2] = tested on: HT-29; experiment: Cytotoxicity against human HT29 cells by sulforhodamine B test; format: functional, cell-based
[3] = tested on: NCI-H460; experiment: Cytotoxicity against human H460 cells by sulforhodamine B test; format: functional, cell-based
[4] = Displacement of [3H]colchicine from tubulin by scintillation proximity assay
[5] = tested on: HT-29; experiment: Cell cycle arrest in human HT29 cells assessed as accumulation at G0/G1 phase at 0.5 uM after 24 hrs by flow cytometry assay; format: functional
[6] = tested on: HT-29; experiment: Cell cycle arrest in human HT29 cells assessed as accumulation at S phase at 0.5 uM after 24 hrs by flow cytometry assay; format: functional
[7] = tested on: HT-29; experiment: Cell cycle arrest in human HT29 cells assessed as accumulation at G2/M phase at 0.5 uM after 24 hrs by flow cytometry assay; format: functional

| SMILES | IC50 [1] | IC50 [2] | IC50 [3] | IC50 [4] | Activity [5] | Activity [6] | Activity [7] |
| --- | --- | --- | --- | --- | --- | --- | --- |
| COc1ccc(/C=C\c2cc(OC)c3c(c2)OCO3)cc1O [Combretastatin A-2] | 48 nM | > 1000 nM | 40 nM | – | – | – | – |
| COc1ccc(/C=C\c2ccc3c(c2)C(C)(C)CCC3(C)C)cc1O | > 10000 nM | – | – | – | – | – | – |
| COc1ccc(/C=C\c2cc(OC)c3ccoc3c2)cc1O | 35 nM | 420 nM | 19 nM | 20 nM | – | – | – |
| COc1ccc(/C=C\c2cc(OC)c3ccsc3c2)cc1N.Cl | 20 nM | 21 nM | 19 nM | 6200 nM | 28% | 22% | 50% |
| COc1ccc(/C=C\c2cc(OC)c3occc3c2)cc1O | 35 nM | 590 nM | 12 nM | 50 nM | – | – | – |
| COc1cc2c(c(OC)c1OC)-c1ccc(OC)c(=O)cc1[C@@H](NC(C)=O)CC2 [COLCHICINE] | – | – | – | 1700 nM | – | – | – |
| COc1cc(/C=C\c2cc(O)c3ccsc3c2)cc2c1OCO2 | 880 nM | – | – | 4900 nM | – | – | – |
| COc1ccc(/C=C\c2cc(OC)c(OC)c(OC)c2)cc1O [COMBRETASTATIN A4] | 3.7 nM | 118 nM | 1.2 nM | 100 nM | – | – | – |
| COc1cc(/C=C\c2cc(O)c3ccoc3c2)cc(OC)c1 | 800 nM | – | – | 4000 nM | – | – | – |
| COc1ccc(/C=C\c2cc(OC)c3ccsc3c2)cc1 | 123 nM | – | 110 nM | – | – | – | – |
| COc1cc(/C=C\c2cc(O)c3ccsc3c2)cc(OC)c1 | 110 nM | – | – | 3800 nM | – | – | – |
| COc1ccc(/C=C\c2cc(OC)c3ccsc3c2)cc1O | 17 nM | 260 nM | 13 nM | 20 nM | – | – | – |
| COc1ccc(/C=C/c2cc(OC)c3ccoc3c2)cc1O | > 10000 nM | – | – | 6200 nM | – | – | – |
| COc1cc(/C=C\c2cc(O)c3ccoc3c2)cc2c1OCO2 | > 3000 nM | – | – | 7700 nM | – | – | – |
| COc1cc(/C=C\c2cc(O)c3ccsc3c2)cc2sccc12 | 250 nM | – | 312 nM | – | – | – | – |
